Test: xn = mol fraction of the nth substance listed
Details: 101.3 kPa

CCOS(=O)(=O)[O-].CC[n+]1ccn(C)c1 + CC(C)C(=O)O
x2 = 0
Details | speed of sound [m/s]
293.15 K | 1686.8
298.15 K | 1671.4
303.15 K | 1661.9
308.15 K | 1649.6

CCOS(=O)(=O)[O-].CC[n+]1ccn(C)c1 + CCCCC(=O)O
x2 = 0
Details | speed of sound [m/s]
288.15 K | 1696.4
293.15 K | 1686.8
298.15 K | 1671.4
303.15 K | 1661.9
308.15 K | 1649.6
313.15 K | 1637.5

CC(C)C(=O)O + CCOS(=O)(=O)[O-].CC[n+]1ccn(C)c1
speed of sound [m/s]
Details | 288.15 K | 293.15 K | 298.15 K | 303.15 K | 308.15 K | 313.15 K
x1 = 0.1122 | 1665.5 | 1652.8 | 1640 | 1627.4 | 1614.9 | 1602.6
x1 = 0.2295 | – | – | 1606.3 | 1593.5 | 1580.8 | 1568.2
x1 = 0.3297 | 1592.5 | – | 1566.2 | 1553.2 | 1540.2 | 1527.4
x1 = 0.4305 | 1554.5 | 1541.2 | – | 1514.4 | 1501.1 | 1488.1
x1 = 0.5464 | 1501.1 | 1487.4 | – | 1459.8 | 1446.2 | 1432.7
x1 = 0.6412 | – | 1439.4 | 1425.1 | 1411 | 1396.9 | 1383.1
x1 = 0.728 | 1398.5 | 1383.9 | 1369.1 | 1354.4 | 1339.9 | 1325.5
x1 = 0.8127 | 1331.5 | – | – | 1284.8 | 1269 | 1253.8
x1 = 0.9073 | 1256.7 | 1240 | 1222.8 | 1205.6 | 1188.9 | 1172.5
x1 = 0.9336 | 1233.1 | 1213.2 | – | – | 1162.5 | –
x1 = 0.9576 | 1200.2 | – | 1158.9 | 1141 | 1122.2 | 1100.7
x1 = 1 | 1159 | 1140.3 | 1121.2 | – | 1083.6 | 1065.1

CCCCC(=O)O + CCOS(=O)(=O)[O-].CC[n+]1ccn(C)c1
speed of sound [m/s]
Details | 288.15 K | 293.15 K | 298.15 K | 303.15 K | 308.15 K | 313.15 K
x1 = 0.0974 | – | 1655.2 | 1642.4 | 1629.8 | 1617.2 | 1604.9
x1 = 0.1949 | 1636.9 | – | 1611 | 1598.1 | 1585.4 | 1572.9
x1 = 0.2975 | 1598.8 | – | 1572.4 | – | 1546.4 | –
x1 = 0.3947 | – | – | 1538.1 | 1524.8 | – | 1498.6
x1 = 0.495 | 1525 | 1511.5 | 1497.7 | 1484.1 | 1470.7 | 1457.3
x1 = 0.595 | – | – | 1455.3 | 1441.2 | – | 1413.8
x1 = 0.6941 | 1435.7 | 1421.3 | 1406.7 | 1392.3 | 1377.9 | 1363.7
x1 = 0.7905 | 1383 | 1367.9 | 1352.6 | 1337.5 | 1322.4 | 1307.5
x1 = 0.8965 | 1315 | 1298.6 | 1282 | 1265.6 | 1249.4 | 1233.2
x1 = 0.926 | 1295.1 | 1278.3 | 1261.3 | 1244.4 | 1227.7 | 1211.1
x1 = 0.9529 | 1277.5 | – | 1242.8 | – | 1208.3 | 1191.3
x1 = 1 | 1253.7 | 1235.8 | – | 1199.5 | – | 1163.9

From a compilation of properties of binary mixtures (doi:10.1080/00319104.2019.1566461)
